Source: patent US6852673B2, “Herbicidal pyridine compounds” (BASF Aktiengesellschaft, priority 1998, dated 2005)

Key:
Format in all cases: in vivo
[1] = tested on: Abutilon theophrasti (ABUTH); experiment: Pre-emergence herbicidal evaluation, velvetleaf
Summary of the method: (§1)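 Rating done 2–4 weeks post-treatment in the greenhouse. Compound, in aqueous acetone, was sprayed onto soil surface right after sowing, at rates equivalent to about 0.0125–0.4 kg per hectare, before crop or weed emergence.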

[2] = tested on: Triticum aestivum (TRZAW); experiment: Post-emergence herbicidal evaluation, winter wheat; conditions: rated 2 to 4 weeks after treatment
Summary of the method: (§2)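 Emerged seedlings receive a water-diluted acetone formulation at about 0.03 to 0.4 kg per hectare per pot and are grown on in the greenhouse. Scoring after 2–4 weeks uses a 0 (untreated-like growth) to 9 (death) scale.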

Oryza sativum (ORYSA) [3] = experiment: Post-emergence herbicidal evaluation, rice; conditions: rated 2 to 4 weeks after treatment
Summary of the method: as §2

Lamium purpureum (LAMPU) [4] = experiment: Pre-emergence herbicidal evaluation, purple deadnettle
Summary of the method: as §1

[5] = tested on: Alopecurus myosuroides (ALOMY); experiment: Pre-emergence herbicidal evaluation, black grass
Summary of the method: as §1

Zea mays (ZEAMX) = experiment: Post-emergence herbicidal evaluation, maize; conditions: rated 2 to 4 weeks after treatment
Summary of the method: as §2

[6] = tested on: Ipomoea hederacea (IPOHE); experiment: Pre-emergence herbicidal evaluation, morning glory
Summary of the method: as §1

[7] = tested on: Triticum aestivum (TRZAW); experiment: Pre-emergence herbicidal evaluation, winter wheat
Summary of the method: as §1

Setaria viridis (SETVI) = experiment: Pre-emergence herbicidal evaluation, green foxtail
Summary of the method: as §1

[8] = tested on: Ambrosia artemiisifolia (AMBEL); experiment: Pre-emergence herbicidal evaluation, ragweed
Summary of the method: as §1

Galium aparine (GALAP) [9] = experiment: Pre-emergence herbicidal evaluation, cleaver
Summary of the method: as §1

[10] = tested on: Ambrosia artemiisifolia (AMBEL); experiment: Post-emergence herbicidal evaluation, ragweed; conditions: rated 2 to 4 weeks after treatment
Summary of the method: as §2

[11] = tested on: Matricaria inodora (MATIN); experiment: Post-emergence herbicidal evaluation, mayweed; conditions: rated 2 to 4 weeks after treatment
Summary of the method: as §2

[12] = tested on: Abutilon theophrasti (ABUTH); experiment: Post-emergence herbicidal evaluation, velvetleaf; conditions: rated 2 to 4 weeks after treatment
Summary of the method: as §2

[13] = tested on: Matricaria inodora (MATIN); experiment: Pre-emergence herbicidal evaluation, mayweed
Summary of the method: as §1

Lamium purpureum (LAMPU) [14] = experiment: Post-emergence herbicidal evaluation, purple deadnettle; conditions: rated 2 to 4 weeks after treatment
Summary of the method: as §2

Hordeum vulgare (HORVW) = experiment: Pre-emergence herbicidal evaluation, winter barley
Summary of the method: as §1

Solanum nigrum (SOLNI) [15] = experiment: Pre-emergence herbicidal evaluation, black nightshade
Summary of the method: as §1

Glycine max (GLXMA) [16] = experiment: Post-emergence herbicidal evaluation, soyabeans; conditions: rated 2 to 4 weeks after treatment
Summary of the method: as §2

Stellaria media (STEME) = experiment: Post-emergence herbicidal evaluation, chickweed; conditions: rated 2 to 4 weeks after treatment
Summary of the method: as §2

Galium aparine (GALAP) [17] = experiment: Post-emergence herbicidal evaluation, cleaver; conditions: rated 2 to 4 weeks after treatment
Summary of the method: as §2

[18] = tested on: Ipomoea hederacea (IPOHE); experiment: Post-emergence herbicidal evaluation, morning glory; conditions: rated 2 to 4 weeks after treatment
Summary of the method: as §2

Glycine max (GLXMA) [19] = experiment: Pre-emergence herbicidal evaluation, soyabeans
Summary of the method: as §1

Oryza sativum (ORYSA) [20] = experiment: Pre-emergence herbicidal evaluation, rice
Summary of the method: as §1

[21] = tested on: Echinochloa grus galli (ECHCG); experiment: Pre-emergence herbicidal evaluation, barnyard grass
Summary of the method: as §1

Solanum nigrum (SOLNI) [22] = experiment: Post-emergence herbicidal evaluation, black nightshade; conditions: rated 2 to 4 weeks after treatment
Summary of the method: as §2

Cc1cc(OCC(F)(F)C(F)(F)C(F)(F)C(F)F)nc(Oc2cc(C(F)(F)F)nn2C)c1 [Example 8]
ABUTH rating ([1]; dose 0.013 kg/ha): 0 (0 - No effect) | ABUTH rating ([1]; dose 0.025 kg/ha): 1 (1 - Trace effect) | ABUTH rating ([1]; dose 0.1 kg/ha): 7 (7 - Good herbicidal effect) | ABUTH rating ([1]; dose 0.4 kg/ha): 9 (9 - Complete kill) | TRZAW rating ([2]; dose 0.03 kg/ha): 2 (2 - Slight effect) | TRZAW rating ([2]; dose 0.1 kg/ha): 2 (2 - Slight effect) | TRZAW rating ([2]; dose 0.4 kg/ha): 3 (3 - Moderate effect) | ORYSA rating (Oryza sativum (ORYSA) [3]; dose 0.03 kg/ha): 1 (1 - Trace effect) | ORYSA rating (Oryza sativum (ORYSA) [3]; dose 0.1 kg/ha): 2 (2 - Slight effect) | ORYSA rating (Oryza sativum (ORYSA) [3]; dose 0.4 kg/ha): 2 (2 - Slight effect) | LAMPU rating (Lamium purpureum (LAMPU) [4]; dose 0.013 kg/ha): 8 (8 - Approaching complete kill) | LAMPU rating (Lamium purpureum (LAMPU) [4]; dose 0.025 kg/ha): 8 (8 - Approaching complete kill) | LAMPU rating (Lamium purpureum (LAMPU) [4]; dose 0.1 kg/ha): 9 (9 - Complete kill) | LAMPU rating (Lamium purpureum (LAMPU) [4]; dose 0.4 kg/ha): 9 (9 - Complete kill) | ALOMY rating ([5]; dose 0.013 kg/ha): 1 (1 - Trace effect) | ALOMY rating ([5]; dose 0.025 kg/ha): 1 (1 - Trace effect) | ALOMY rating ([5]; dose 0.1 kg/ha): 7 (7 - Good herbicidal effect) | ALOMY rating ([5]; dose 0.4 kg/ha): 8 (8 - Approaching complete kill) | ZEAMX rating (Zea mays (ZEAMX); dose 0.03 kg/ha): 1 (1 - Trace effect) | ZEAMX rating (Zea mays (ZEAMX); dose 0.1 kg/ha): 1 (1 - Trace effect) | ZEAMX rating (Zea mays (ZEAMX); dose 0.4 kg/ha): 3 (3 - Moderate effect) | IPOHE rating ([6]; dose 0.013 kg/ha): 2 (2 - Slight effect) | IPOHE rating ([6]; dose 0.025 kg/ha): 2 (2 - Slight effect) | IPOHE rating ([6]; dose 0.1 kg/ha): 9 (9 - Complete kill) | IPOHE rating ([6]; dose 0.4 kg/ha): 9 (9 - Complete kill) | TRZAW rating ([7]; dose 0.013 kg/ha): 0 (0 - No effect) | TRZAW rating ([7]; dose 0.025 kg/ha): 0 (0 - No effect) | TRZAW rating ([7]; dose 0.1 kg/ha): 1 (1 - Trace effect) | TRZAW rating ([7]; dose 0.4 kg/ha): 3 (3 - Moderate effect) | SETVI rating (Setaria viridis (SETVI); dose 0.013 kg/ha): 1 (1 - Trace effect) | SETVI rating (Setaria viridis (SETVI); dose 0.025 kg/ha): 3 (3 - Moderate effect) | SETVI rating (Setaria viridis (SETVI); dose 0.1 kg/ha): 9 (9 - Complete kill) | SETVI rating (Setaria viridis (SETVI); dose 0.4 kg/ha): 9 (9 - Complete kill) | AMBEL rating ([8]; dose 0.013 kg/ha): 5 (5 - Definite injury) | AMBEL rating ([8]; dose 0.025 kg/ha): 7 (7 - Good herbicidal effect) | AMBEL rating ([8]; dose 0.1 kg/ha): 8 (8 - Approaching complete kill) | AMBEL rating ([8]; dose 0.4 kg/ha): 8 (8 - Approaching complete kill) | GALAP rating (Galium aparine (GALAP) [9]; dose 0.013 kg/ha): 1 (1 - Trace effect) | GALAP rating (Galium aparine (GALAP) [9]; dose 0.025 kg/ha): 1 (1 - Trace effect) | GALAP rating (Galium aparine (GALAP) [9]; dose 0.1 kg/ha): 6 (6 - Herbicidal effect) | GALAP rating (Galium aparine (GALAP) [9]; dose 0.4 kg/ha): 8 (8 - Approaching complete kill) | AMBEL rating ([10]; dose 0.03 kg/ha): 5 (5 - Definite injury) | AMBEL rating ([10]; dose 0.1 kg/ha): 8 (8 - Approaching complete kill) | AMBEL rating ([10]; dose 0.4 kg/ha): 8 (8 - Approaching complete kill) | MATIN rating ([11]; dose 0.03 kg/ha): 9 (9 - Complete kill) | MATIN rating ([11]; dose 0.1 kg/ha): 9 (9 - Complete kill) | MATIN rating ([11]; dose 0.4 kg/ha): 9 (9 - Complete kill) | ABUTH rating ([12]; dose 0.03 kg/ha): 1 (1 - Trace effect) | ABUTH rating ([12]; dose 0.1 kg/ha): 5 (5 - Definite injury) | ABUTH rating ([12]; dose 0.4 kg/ha): 7 (7 - Good herbicidal effect) | MATIN rating ([13]; dose 0.013 kg/ha): 8 (8 - Approaching complete kill) | MATIN rating ([13]; dose 0.025 kg/ha): 8 (8 - Approaching complete kill) | MATIN rating ([13]; dose 0.1 kg/ha): 9 (9 - Complete kill) | MATIN rating ([13]; dose 0.4 kg/ha): 9 (9 - Complete kill) | LAMPU rating (Lamium purpureum (LAMPU) [14]; dose 0.03 kg/ha): 8 (8 - Approaching complete kill) | LAMPU rating (Lamium purpureum (LAMPU) [14]; dose 0.1 kg/ha): 8 (8 - Approaching complete kill) | LAMPU rating (Lamium purpureum (LAMPU) [14]; dose 0.4 kg/ha): 9 (9 - Complete kill) | HORVW rating (Hordeum vulgare (HORVW); dose 0.013 kg/ha): 0 (0 - No effect) | HORVW rating (Hordeum vulgare (HORVW); dose 0.025 kg/ha): 1 (1 - Trace effect) | HORVW rating (Hordeum vulgare (HORVW); dose 0.1 kg/ha): 3 (3 - Moderate effect) | HORVW rating (Hordeum vulgare (HORVW); dose 0.4 kg/ha): 4 (4 - Injury) | SOLNI rating (Solanum nigrum (SOLNI) [15]; dose 0.013 kg/ha): 1 (1 - Trace effect) | SOLNI rating (Solanum nigrum (SOLNI) [15]; dose 0.025 kg/ha): 3 (3 - Moderate effect) | SOLNI rating (Solanum nigrum (SOLNI) [15]; dose 0.1 kg/ha): 8 (8 - Approaching complete kill) | SOLNI rating (Solanum nigrum (SOLNI) [15]; dose 0.4 kg/ha): 8 (8 - Approaching complete kill) | GLXMA rating (Glycine max (GLXMA) [16]; dose 0.03 kg/ha): 5 (5 - Definite injury) | GLXMA rating (Glycine max (GLXMA) [16]; dose 0.1 kg/ha): 7 (7 - Good herbicidal effect) | GLXMA rating (Glycine max (GLXMA) [16]; dose 0.4 kg/ha): 8 (8 - Approaching complete kill) | STEME rating (Stellaria media (STEME); dose 0.03 kg/ha): 3 (3 - Moderate effect) | STEME rating (Stellaria media (STEME); dose 0.1 kg/ha): 5 (5 - Definite injury) | STEME rating (Stellaria media (STEME); dose 0.4 kg/ha): 8 (8 - Approaching complete kill) | GALAP rating (Galium aparine (GALAP) [17]; dose 0.03 kg/ha): 5 (5 - Definite injury) | GALAP rating (Galium aparine (GALAP) [17]; dose 0.1 kg/ha): 7 (7 - Good herbicidal effect) | GALAP rating (Galium aparine (GALAP) [17]; dose 0.4 kg/ha): 8 (8 - Approaching complete kill) | IPOHE rating ([18]; dose 0.03 kg/ha): 7 (7 - Good herbicidal effect) | IPOHE rating ([18]; dose 0.1 kg/ha): 9 (9 - Complete kill) | IPOHE rating ([18]; dose 0.4 kg/ha): 9 (9 - Complete kill) | GLXMA rating (Glycine max (GLXMA) [19]; dose 0.013 kg/ha): 0 (0 - No effect) | GLXMA rating (Glycine max (GLXMA) [19]; dose 0.025 kg/ha): 1 (1 - Trace effect) | GLXMA rating (Glycine max (GLXMA) [19]; dose 0.1 kg/ha): 2 (2 - Slight effect) | GLXMA rating (Glycine max (GLXMA) [19]; dose 0.4 kg/ha): 4 (4 - Injury) | ORYSA rating (Oryza sativum (ORYSA) [20]; dose 0.013 kg/ha): 0 (0 - No effect) | ORYSA rating (Oryza sativum (ORYSA) [20]; dose 0.025 kg/ha): 0 (0 - No effect) | ORYSA rating (Oryza sativum (ORYSA) [20]; dose 0.1 kg/ha): 1 (1 - Trace effect) | ORYSA rating (Oryza sativum (ORYSA) [20]; dose 0.4 kg/ha): 1 (1 - Trace effect) | ECHCG rating ([21]; dose 0.013 kg/ha): 1 (1 - Trace effect) | ECHCG rating ([21]; dose 0.025 kg/ha): 1 (1 - Trace effect) | ECHCG rating ([21]; dose 0.1 kg/ha): 6 (6 - Herbicidal effect) | ECHCG rating ([21]; dose 0.4 kg/ha): 8 (8 - Approaching complete kill) | SOLNI rating (Solanum nigrum (SOLNI) [22]; dose 0.03 kg/ha): 3 (3 - Moderate effect) | SOLNI rating (Solanum nigrum (SOLNI) [22]; dose 0.1 kg/ha): 5 (5 - Definite injury) | SOLNI rating (Solanum nigrum (SOLNI) [22]; dose 0.4 kg/ha): 8 (8 - Approaching complete kill)
